The test system of this experiment is MDA-MB-231-BR cells brain metastases. Nature of the experiment: Brain metastasis model, intracardiac MDA-MB-231-BR cells in nude mice (Example 5). The class given is in vivo, Balb/c nude mice. Further details: key to Mean Large Mets: mean no. of large metastases (>50 microns^2) per mouse; key to Mean Micromets: mean no. of metastases in 10 step sections of one hemisphere. The conditions noted are these: for Mean Large Mets: large >50 microns^2. As for the experimental part: Cells are prepared as described in Example 2 with additional preparation as follows. The retroviral vector pLEGFP-C1 (BD Biosciences, San Jose, Calif.) is transfected into murine fibroblast PT67 packaging cells using Effectene reagent according to the manufacturer's protocol (Qiagen, Germantown, Md.). After 24 hours, enhanced green fluorescent protein (EGFP)-expressing cells are selected in the presence of 1 mg/mL G418 (Invitrogen, Carlsbad, Calif.), and colonies are expanded. Virus is harvested and filtered through a 0.45 um Millex-HA syringe-driven filter (Millipore, Billerica, Mass.) and 231-BR cells are infected with retrovirus for 6 hours. The following day, 231-BR cells are selected in the presence of 0.8 mg/mL G418, and EGFP expression in 95-99% of the cells is confirmed by fluorescent microscopy.
All animal experiments are conducted under an approved Animal Use Agreement with the NCI. Under isoflurane anesthesia, 20 female Balb/c nude mice (Charles River Laboratories, Frederick, Md.) 5-7 weeks old are inoculated with 500,000 (Experiment 1) or 100,000 (Experiment 2) MDA-MB-231-BR cells in 0.1 mL PBS in the left ventricle of the heart. Mice are monitored daily for signs of ill health. Three days after tumor cell inoculation mice are randomized to treatment groups and treatment is started. […] After 21 days of treatment, mice are euthanized under CO2 anesthesia and brains are excised for imaging. EGFP is detected in whole brains by the Maestro 420 In Vivo Spectral Imaging System (Cambridge Research and Instrumentation, Woburn, Mass.), using software (e.g., Nuance Technology, Burlington, Mass.) to distinguish or unmix images of fluorescence from multiple sources. After imaging, mouse brains are bisected along the sagittal plane and the right hemisphere of the brain is fixed in 4% paraformaldehyde for 24-48 hours at 4° C., then transferred to 20% sucrose overnight at 4° C. and frozen (for EGFP detection/histology). The left hemisphere is forallin-fixed and paraffin embedded for immunohistochemistry. Ten micron brain sections are serially cut and processed for either EGFP microscopy or histology. To detect EGFP, slides are dried at room temperature and 25 uL Vectashield HardSet Mounting Media with DAPI was added (Vector Laboratories, Burlingame, Calif.). Images are captured on a Zeiss Axioskop 2 microscope (Thornwood, N.Y.) using OpenLab software (Improvision, Lexington, Mass.). For staining with hematoxylin and eosin, a standard protocol is followed. Ten serial sections every 300 microns through the brain are analyzed using a 5× objective on a Zeiss microscope, containing an ocular grid with squares of 0.8 mm^2.
Every micro- or large (>50 microns^2) metastasis in each section is tabulated. Data are representative of two experiments conducted. Wilcoxon rank sum test is used to compare the number of total metastases and the number of large metastases in vehicle treated versus vorinostat treated mice. Tests can be performed using GraphPad InStat version 3.0 software. “Mean Micromets” in Tables 6 and 7 refer to the mean number of metastases counted in 10 step sections from one hemisphere of the brain. “Mean Large Mets” in Tables 6 and 7 refer to the size of metastases determined by a 16 mm^2 ocular grid. Large metastases are greater than 50 microns^2.

In the case of `O=C(CCCCCCC(=O)Nc1ccccc1)NO` [SAHA, N-Hydroxy-N′-phenyloctanediamide], the “Mean Micromets” value (Experiment 1 (500,000 cells), 100 mg/kg SAHA IP once daily 21 days, vehicle 205.5) worked out at 140.4; the “Mean Micromets” value (Experiment 1 (500,000 cells), 150 mg/kg SAHA IP once daily 21 days (lowered from 200 mg/kg), vehicle 205.5) came to 151.8; the “Mean Micromets” value (Experiment 2 (100,000 cells), 100 mg/kg SAHA IP once daily 21 days, vehicle 72.5) worked out at 78.3; the “Mean Micromets” value (Experiment 2 (100,000 cells), 150 mg/kg SAHA IP once daily 21 days, vehicle 72.5) amounted to 66.6. The “Mean Large Mets” value reads like this: (Experiment 1, 100 mg/kg SAHA IP once daily 21 days, vehicle 6.8) 2.9; (Experiment 1, 150 mg/kg SAHA IP once daily 21 days (lowered from 200 mg/kg), vehicle 6.8) 3.5; (Experiment 2, 100 mg/kg SAHA IP once daily 21 days, vehicle 3.3) 4.4; (Experiment 2, 150 mg/kg SAHA IP once daily 21 days, vehicle 3.3) 1.5. In addition, the “number of large (>50 micron^2) brain metastases, in words” value (in vivo, mice, IP SAHA vs vehicle) is reported as “reduces the number”.

Source of the values: patent US20100113602A1, “USE OF HISTONE DEACETYLASE INHIBITORS FOR THE TREATMENT OF CENTRAL NERVOUS SYSTEM METASTASES” (The United States of America,as represented by the …, priority 2007, published 2010).
